Experimental findings from patent US20260137820A1, “TRIFUNCTIONAL COMPOUND AND USE THEREOF” (PEKING UNIVERSITY, priority 2022, published 2026) are described below.

Test [1] concerns the target T1, Human FAP Protein (Homo sapiens, UniProt Q12884).
T1 construct: His; purchased Novoprotein (China)
T1 sequence (Q12884 1-760): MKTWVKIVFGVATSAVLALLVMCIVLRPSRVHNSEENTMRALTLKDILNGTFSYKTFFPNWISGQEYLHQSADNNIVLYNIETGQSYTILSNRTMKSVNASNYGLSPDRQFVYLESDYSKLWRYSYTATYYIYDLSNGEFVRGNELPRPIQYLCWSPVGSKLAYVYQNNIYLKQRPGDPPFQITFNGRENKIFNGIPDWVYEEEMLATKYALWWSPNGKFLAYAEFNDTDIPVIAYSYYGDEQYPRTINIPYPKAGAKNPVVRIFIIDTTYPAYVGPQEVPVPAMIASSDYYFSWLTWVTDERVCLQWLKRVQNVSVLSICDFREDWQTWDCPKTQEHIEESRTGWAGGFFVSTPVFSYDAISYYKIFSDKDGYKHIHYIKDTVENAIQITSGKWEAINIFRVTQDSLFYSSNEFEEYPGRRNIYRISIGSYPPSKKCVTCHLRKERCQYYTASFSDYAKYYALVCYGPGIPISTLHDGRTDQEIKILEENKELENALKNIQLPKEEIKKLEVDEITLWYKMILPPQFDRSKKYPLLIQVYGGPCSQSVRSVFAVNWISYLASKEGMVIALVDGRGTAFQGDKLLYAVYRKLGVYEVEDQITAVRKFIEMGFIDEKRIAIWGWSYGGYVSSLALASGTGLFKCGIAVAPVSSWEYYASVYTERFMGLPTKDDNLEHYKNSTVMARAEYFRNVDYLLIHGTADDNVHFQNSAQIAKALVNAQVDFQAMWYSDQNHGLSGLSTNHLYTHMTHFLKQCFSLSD
The test is described as follows: Surface plasmon resonance, multi-cycle mode. It counts as binding. The note with it: SPR multi-cycle. As for the experimental part:
According to US Pharmacopeia USP43 IMMUNOLOGICAL TEST METHODS-SURFACE PLASMON RESONANCE<1105> and Chinese Pharmacopoeia 2020, Volume IV, Surface plasmon resonance method, Label-free Immunochemistry (IV), 3429 Immunochemistry, General Rule, a surface plasmon resonance experiment was carried out.
A surface plasma chromatograph from Cytiva was used for measurement. Before protein injection, 400 mM condensing agent 1-ethyl-(3-dimethylaminopropyl)carbodiimide hydrochloride and 100 mM N-hydroxysuccinimide were mixed, and a CM5 sensor chip was activated with this mixture for 420 seconds at a flow rate of 10 μL/min. 50 μg/mL protein was then injected into an Fc2 sample channel at a flow rate of 10 μL/min to achieve a protein immobilization level of about 8000-15000 RU. In the control group, no protein was injected. Subsequently, the unreacted chip was blocked with 1M ethanolamine hydrochloride-NaOH at a flow rate of 10 μL/min for 420 seconds.
Different gradient solutions were injected into channels Fc1-Fc2 at a flow rate of 30 μL/min, followed by a 60-second binding phase and a 90-second dissociation phase, and data were collected.
Background: SPR reads the build-up and loss of mass on a sensor chip optically.

Test [2] deals with HT-1080-FAP cells. Nature of the test: Determination of IC50 in cell experiment (competition with ^68Ga-FAPI-04). The test is classed as cell-based. The conditions noted are these: Homo sapiens; vs 0.75 nM ^68Ga-FAPI-04, 37° C., 1 hour. How it is done: Cell model: A human fibrosarcoma cell line (HT-1080-FAP) with high FAP expression was constructed by transfection of an FAP plasmid into a human fibrosarcoma cell line (HT-1080) by WuXi Biologics (China).
HT-1080-FAP cells were inoculated into a 24-well plate 24 hours in advance, with the density being about 30% (calculated and estimated), 10^5 cells (countable) per well. 0.5 mL of a complete medium was added. The medium was changed to a serum-free medium. 12 groups of FAPI-CB-01 solutions with a concentration gradient of 0-5000 nM were set up, with internal replicates n=4 for each group. […] 0.75 nM ^68Ga-FAPI-04 was added to each well, followed by incubation at 37° C. for 1 hour. After washing twice with cold PBS and lysis, the radioactivity count was measured.

The term Kd denotes the equilibrium constant for the complex coming apart. A low value points to tighter binding. One may read the IC50 as the point on the concentration scale where inhibition reaches its midpoint. Higher therefore signals lower potency.

As for `N#C[C@@H]1CC(F)(F)CN1C(=O)CNC(=O)c1ccnc2ccc(OCCCN3CCN(C(=O)[C@H](CCCCNC(=O)c4ccc(OS(=O)(=O)F)cc4)NC(=O)CN4CCN(CC(=O)O)CCN(CC(=O)O)CCN(CC(=O)O)CC4)CC3)cc12` [FAPI-CB-01], in test [1], the “affinity compared with FAPI-04” value was “improved by approximately two orders of magnitude”, the “binding rate compared with FAPI-04” value is “significantly increased” and the “dissociation rate compared with FAPI-04” value is “decreased”. In addition, in test [1] (1:1 binding model), the Kd was determined as 0.00462 nM, the “Rmax (maximum theoretical analyte binding capacity)” value was 29.3 RU and the kd was determined as 4.79e-05 s⁻¹. In addition, the kon in test [1] (1:1 binding model, read-out: ka) came out at 1.04e+07 M⁻¹ s⁻¹. Further, the IC50 in test [2] amounted to 11.6 ± 0.32 nM.
